Source: ChEMBL document CHEMBL4616601, “Meeting organometallic chemistry with drug discovery: CH activation enabled discovery of a new ring system of 12H-Indazolo[2,1-a]cinnolin-12-ones with anti-proliferation activity” (Bioorg Med Chem Lett, 2020)
Activity calls are given as the source filed them. No rule for the calls is given here.

Legend:
[1] = system: PC-3; assay: Antiproliferative activity against human PC3 cells assessed as inhibition of cell viability at 0.5 to 5 uM after 72 hrs by CCK8 assay; type: functional, cell-based
[2] = system: PC-3; assay: Antiproliferative activity against human PC3 cells at 0.5 uM assessed as inhibition of cell viability after 72 hrs by CCK-8 assay relative to control; type: functional; conditions: PC-3, 72 h
[3] = system: PC-3; assay: Antiproliferative activity against human PC3 cells assessed as reduction in cell viability after 72 hrs by CCK8 assay; type: functional, cell-based; conditions: PC-3, 72 h
[4] = system: PANC-1; assay: Antiproliferative activity against human PANC1 cells assessed as reduction in cell viability after 72 hrs; type: functional, cell-based; conditions: PANC-1, 72 h
[5] = system: SW1990; assay: Antiproliferative activity against human SW1990 cells assessed as reduction in cell viability; type: functional, cell-based
[6] = system: SK-BR-3; assay: Antiproliferative activity against human SKBR3 cells assessed as reduction in cell viability; type: functional, cell-based
[7] = system: HCT-116; assay: Antiproliferative activity against human HCT116 cells assessed as reduction in cell viability; type: functional, cell-based
[8] = system: NCI-H1299; assay: Antiproliferative activity against human NCI-H1299 cells assessed as reduction in cell viability; type: functional, cell-based
[9] = system: HepG2; assay: Antiproliferative activity against human HepG2 cells assessed as reduction in cell viability; type: functional, cell-based
[10] = system: HeLa; assay: Antiproliferative activity against human HeLa cells assessed as reduction in cell viability; type: functional, cell-based
[11] = system: DU-145; assay: Antiproliferative activity against human DU145 cells assessed as reduction in cell viability; type: functional, cell-based
[12] = system: PC-3; assay: Inhibition of colony formation in human PC3 cells at 50 nM after 1 week relative to control; type: functional; conditions: PC-3, 168 h
[13] = system: PC-3; assay: Inhibition of colony formation in human PC3 cells at 250 nM after 1 week relative to control; type: functional; conditions: PC-3, 168 h
[14] = system: PC-3; assay: Inhibition of colony formation in human PC3 cells after 1 week; type: functional, cell-based
[15] = system: PC-3; assay: Induction of cell cycle arrest in human PC3 cells assessed as accumulation at G2/M phase after 24 hrs by flow cytometry; type: functional, cell-based
[16] = system: PC-3; assay: Induction of cell cycle arrest in human PC3 cells assessed as accumulation at G1 phase at 50 nM after 24 hrs by flow cytometry (reference value: 56.46%); type: functional
[17] = system: PC-3; assay: Induction of cell cycle arrest in human PC3 cells assessed as accumulation at S phase at 50 nM after 24 hrs by flow cytometry (reference value: 24.73%); type: functional
[18] = system: PC-3; assay: Induction of cell cycle arrest in human PC3 cells assessed as accumulation at G2/M phase at 50 nM after 24 hrs by flow cytometry (reference value: 18.81%); type: functional
[19] = system: PC-3; assay: Induction of cell cycle arrest in human PC3 cells assessed as accumulation at G1 phase at 100 nM after 24 hrs by flow cytometry (reference value: 56.46%); type: functional
[20] = system: PC-3; assay: Induction of cell cycle arrest in human PC3 cells assessed as accumulation at S phase at 100 nM after 24 hrs by flow cytometry (reference value: 24.73%); type: functional
[21] = system: PC-3; assay: Induction of cell cycle arrest in human PC3 cells assessed as accumulation at G2/M phase at 100 nM after 24 hrs by flow cytometry (reference value: 18.81%); type: functional
[22] = system: PC-3; assay: Induction of cell cycle arrest in human PC3 cells assessed as accumulation at G1 phase at 250 nM after 24 hrs by flow cytometry (reference value: 56.46%); type: functional
[23] = system: PC-3; assay: Induction of cell cycle arrest in human PC3 cells assessed as accumulation at S phase at 250 nM after 24 hrs by flow cytometry (reference value: 24.73%); type: functional
[24] = system: PC-3; assay: Induction of cell cycle arrest in human PC3 cells assessed as accumulation at G2/M phase at 250 nM after 24 hrs by flow cytometry (reference value: 18.81%); type: functional
[25] = system: PC-3; assay: Induction of cell cycle arrest at G2/M phase in human PC3 cells assessed as increase in cyclin B1 expression after 24 hrs by Western blot analysis; type: functional, cell-based
[26] = system: PC-3; assay: Induction of cell cycle arrest at G2/M phase in human PC3 cells assessed as increase in CDC2 expression after 24 hrs by Western blot analysis; type: functional, cell-based
[27] = system: PC-3; assay: Induction of apoptosis in human PC3 cells assessed as viable cells at 50 nM after 24 hrs by Annexin V-FITC/propidium iodide staining-based flow cytometry (reference value: 75.33%); type: functional; conditions: PC-3, 24 h, read-out: Activity
[28] = system: PC-3; assay: Induction of apoptosis in human PC3 cells assessed as early apoptotic cells at 50 nM after 24 hrs by Annexin V-FITC/propidium iodide staining-based flow cytometry (reference value: 11.88%); type: functional
[29] = system: PC-3; assay: Induction of apoptosis in human PC3 cells assessed as late apoptotic cells at 50 nM after 24 hrs by Annexin V-FITC/propidium iodide staining-based flow cytometry (reference value: 12.21%); type: functional
[30] = system: PC-3; assay: Induction of apoptosis in human PC3 cells assessed as necrotic cells at 50 nM after 24 hrs by Annexin V-FITC/propidium iodide staining-based flow cytometry (reference value: 0.58%); type: functional
[31] = system: PC-3; assay: Induction of apoptosis in human PC3 cells assessed as viable cells at 100 nM after 24 hrs by Annexin V-FITC/propidium iodide staining-based flow cytometry (reference value: 75.33%); type: functional; conditions: PC-3, 24 h, read-out: Activity
[32] = system: PC-3; assay: Induction of apoptosis in human PC3 cells assessed as early apoptotic cells at 100 nM after 24 hrs by Annexin V-FITC/propidium iodide staining-based flow cytometry (reference value: 11.88%); type: functional
[33] = system: PC-3; assay: Induction of apoptosis in human PC3 cells assessed as late apoptotic cells at 100 nM after 24 hrs by Annexin V-FITC/propidium iodide staining-based flow cytometry (reference value: 12.21%); type: functional
[34] = system: PC-3; assay: Induction of apoptosis in human PC3 cells assessed as necrotic cells at 100 nM after 24 hrs by Annexin V-FITC/propidium iodide staining-based flow cytometry (reference value: 0.58%); type: functional
[35] = system: PC-3; assay: Induction of apoptosis in human PC3 cells assessed as viable cells at 250 nM after 24 hrs by Annexin V-FITC/propidium iodide staining-based flow cytometry (reference value: 75.33%); type: functional; conditions: PC-3, 24 h, read-out: Activity
[36] = system: PC-3; assay: Induction of apoptosis in human PC3 cells assessed as early apoptotic cells at 250 nM after 24 hrs by Annexin V-FITC/propidium iodide staining-based flow cytometry (reference value: 11.88%); type: functional
[37] = system: PC-3; assay: Induction of apoptosis in human PC3 cells assessed as late apoptotic cells at 250 nM after 24 hrs by Annexin V-FITC/propidium iodide staining-based flow cytometry (reference value: 12.21%); type: functional
[38] = system: PC-3; assay: Induction of apoptosis in human PC3 cells assessed as necrotic cells at 250 nM after 24 hrs by Annexin V-FITC/propidium iodide staining-based flow cytometry (reference value: 0.58%); type: functional
[39] = system: PC-3; assay: Induction of apoptosis in human PC3 cells after 24 hrs by Annexin V-FITC/propidium iodide staining-based flow cytometry; type: functional, cell-based
[40] = system: PC-3; assay: Induction of apoptosis in human PC3 cells assessed as reduction in caspase-3 expression after 24 hrs by Western blot analysis; type: functional, cell-based
[41] = system: PC-3; assay: Induction of apoptosis in human PC3 cells assessed as reduction in PARP expression level after 24 hrs by Western blot analysis; type: functional, cell-based
[42] = system: PC-3; assay: Induction of apoptosis in human PC3 cells assessed as increase in PARP cleavage after 24 hrs by Western blot analysis; type: functional, cell-based

IC50 [3]: 0.159 µM | IC50 [4]: 0.197 µM | IC50 [5]: 0.041 to 0.188 µM | IC50 [6]: 0.041 to 0.188 µM | IC50 [7]: 0.041 to 0.188 µM | IC50 [8]: 0.041 to 0.188 µM | IC50 [9]: 0.041 to 0.188 µM | IC50 [10]: 0.041 to 0.188 µM | IC50 [11]: 0.041 to 0.188 µM
Compound: CCOC(=O)c1c(C)n2c3ccccc3c(=O)n2c2ccc3c(c12)OCO3
Activity [1]: Active | inhibition at 0.5 µM [2]: 62.8% | inhibition at 0.05 µM [12]: 85% | inhibition at 0.25 µM [13]: 98% | inhibition [14]: Dose-dependent effect | Activity [15]: Dose-dependent effect | Activity [16]: 55.12% | Activity [17]: 23.43% | Activity [18]: 21.45% | Activity [19]: 46.89% | Activity [20]: 22.46% | Activity [21]: 30.65% | Activity [22]: 14.06% | Activity [23]: 24.16% | Activity [24]: 61.78% | Activity [25]: Dose-dependent effect | Activity [26]: Dose-dependent effect | viability at 0.05 µM [27]: 34.7% | Activity [28]: 25.82% | Activity [29]: 37.02% | Activity [30]: 2.48% | viability at 0.1 µM [31]: 13% | Activity [32]: 18.52% | Activity [33]: 56.27% | Activity [34]: 12.2% | viability at 0.25 µM [35]: 4.73% | Activity [36]: 27.88% | Activity [37]: 62.42% | Activity [38]: 4.97% | Activity [39]: Dose-dependent effect | Activity [40]: Dose-dependent effect | Activity [41]: Dose-dependent effect | Activity [42]: Dose-dependent effect
